Here are results for three compounds from patent US4428942A, “Analogs of somatostatin” (The Salk Institute for Biological Studies, priority 1982, dated 1984).

Bridge positions count the residues as written; N and C are the ends. Peptide text beside a SMILES is read from it.

In one test the test system is secretion of glucagon. The arrangement: species or system rats. Conditions: rat, in vivo. The procedure: (§1) In vivo experiments are carried out with the analogs, using the procedure described in Brown et al., Metabolism (1976) Vol. 25, pp. 1501-1503, to determine the potency, relative to somatostatin-14, to inhibit the secretion of glucagon and insulin stimulated by the administration of arginine to groups of six rats.

The next test relates to secretion of insulin. The settings on record: rat, in vivo. The procedure:
as §1

In another test the test system is isolated rabbit ileum. The procedure: The analogs are tested in vitro in isolated rabbit ileum using the modified Ussing chamber technique, as described in Amer. J. of Physiol., 225:776-780 (1973). Unidirectional chloride fluxes are determined and used to characterize bi-directional fluxes following the addition of an SS-analog. Changes are measured with varying concentrations, and the potency to inhibit ion transport is quantitated and expressed as a percentage of the potency of SS-14.

Test [1] deals with release of growth hormone induced by isobutyl methyl xanthine in pituitary cells. Type of test: cell-based, rat. The procedure: To determine the effectiveness of the peptides to inhibit the release of growth hormone, in vitro radioimmunoassays are carried out using the SS analogs in side-by-side comparison with equimolar concentrations of somatostatin-14 having a known effectiveness to inhibit the release of growth hormone induced by the application of isobutyl methyl xanthine to pituitary cells. Cultures are used which include cells of rat pituitary glands removed some four to five days previously in a system that minimizes enzymatic degradation, generally following the procedure set forth in Vale et al., Methods in Enzymology, Hormones and Cyclic Nucleotides (1975) Vol. 37, p. 82. Both cultures of a defined standard medium and cultures which are considered optimal for the secretion of growth hormone, as a result of having additions of either 2% or 10% of serum from a foetal calf, are used for the comparative testing.

Take `C[C@H](N)C(=O)NCC(=O)N[C@H]1CSSC[C@@H](C(=O)O)NC(=O)[C@H](CO)NC(=O)[C@H](Cc2ccccc2)NC(=O)[C@H]([C@@H](C)O)NC(=O)[C@H](CCCCN)NC(=O)[C@H](Cc2c[nH]c3ccccc23)NC(=O)[C@H](Cc2ccccc2)NC(=O)[C@H](Cc2ccccc2)NC(=O)[C@H](CC(N)=O)NC(=O)[C@H](CCCCN)NC1=O` [Peptide 7, des-Thr^12 --SS] (H-AGCKNFFWKTFSC-OH; disulfide 3-13): in the test on secretion of glucagon, the “Glucagon (potency to inhibit glucagon secretion relative to SS-14)” value was under 1%. Also, the “Insulin (potency to inhibit insulin secretion relative to SS-14)” value in the test on secretion of insulin is recorded as under 1%. The “Ion Transport (potency to inhibit ion transport expressed as a percentage of the potency of SS-14)” value in the test with isolated rabbit ileum is given as 21%. Besides, the “GH (potency for the inhibition of GH release relative to SS-14)” value in test [1] is recorded as 2%.

As for `C[C@H](N)C(=O)NCC(=O)N[C@H]1CSSC[C@@H](C(=O)O)NC(=O)[C@H](CO)NC(=O)[C@H]([C@@H](C)O)NC(=O)[C@H]([C@@H](C)O)NC(=O)[C@H](CCCCN)NC(=O)[C@H](Cc2c[nH]c3ccccc23)NC(=O)[C@H](Cc2ccccc2)NC(=O)[C@H](Cc2ccccc2)NC(=O)[C@H](CC(N)=O)NC(=O)[C@H](CCCCN)NC1=O` [Peptide 8, des-Phe^11 --SS] (H-AGCKNFFWKTTSC-OH; disulfide 3-13), the “Glucagon (potency to inhibit glucagon secretion relative to SS-14)” value in the test with secretion of glucagon is under 1%. For the same compound, the “Insulin (potency to inhibit insulin secretion relative to SS-14)” value with secretion of insulin is given as under 1%. In the test with isolated rabbit ileum, the “Ion Transport (potency to inhibit ion transport expressed as a percentage of the potency of SS-14)” value worked out at 34%. Besides, the “GH (potency for the inhibition of GH release relative to SS-14)” value in test [1] worked out at 2%.

On to `C[C@H](N)C(=O)NCC(=O)N[C@H]1CSSC[C@@H](C(=O)O)NC(=O)[C@H]([C@@H](C)O)NC(=O)[C@H](Cc2ccccc2)NC(=O)[C@H]([C@@H](C)O)NC(=O)[C@H](CCCCN)NC(=O)[C@H](Cc2c[nH]c3ccccc23)NC(=O)[C@H](Cc2ccccc2)NC(=O)[C@H](Cc2ccccc2)NC(=O)[C@H](CC(N)=O)NC(=O)[C@H](CCCCN)NC1=O` [Peptide 14, des-Ser^13 --SS] (H-AGCKNFFWKTFTC-OH; disulfide 3-13), for which the “Glucagon (potency to inhibit glucagon secretion relative to SS-14)” value in the test with secretion of glucagon is under 1%. Moreover, in the test on secretion of insulin, the “Insulin (potency to inhibit insulin secretion relative to SS-14)” value was under 1%. In addition, the “Ion Transport (potency to inhibit ion transport expressed as a percentage of the potency of SS-14)” value with isolated rabbit ileum amounted to 9%. In addition, the “GH (potency for the inhibition of GH release relative to SS-14)” value in test [1] turned out to be 2%.
